Experimental data: US10981896B2, “Indolinone derivatives as inhibitors of maternal embryonic leucine zipper kinase” (BOARD OF REGENTS, THE UNIVERSITY OF TEXAS SYSTEM, priority 2017, dated 2021)
Where two headings read alike, the source gives them in different places. Each block holds one molecule with its values, some of them ahead of it.

How the values were obtained:
Assay type in all cases: biochemical
MELK = MELK (Homo sapiens (Human), UniProt Q14680); assay: MELK p81-based kinase assay, dose-response (IC50/Ki); details: for IC50: 40 μM ATP
Experimental: MELK and its substrate, Bcl-G were both recombinantly expressed and purified for use in screening assays (See Methods). […] 10 nM MELK 340 and 10 μM Bcl-GL in kinase assay buffer (50 mM HEPES pH 7.5, 100 mM KCl, 0.1 mM EDTA, 0.1 mM EGTA, 10 mM MgCl2, 10 μg/mL BSA) with 10 mM DTT were added to either 10 μM or 1 μM inhibitor aliquoted into 96 well plates (final 1% DMSO). The mixture was incubated at room temperature for 30 minutes prior to initiation of the assay with 40 μM γ-^32P-ATP (100-1000 CPM/pmol). 40 μL aliquots were spotted onto a p81 96 well filter plate (Unifilter, Whatman), quenched, and washed with 75 mM O-phosphoric acid 8 times, followed by a final wash with acetone for drying. Wells were then filled with scintillation fluid, sealed, and quantified using a MicroBeta TriLux liquid scintillation counter (PerkinElmer). Each inhibitor plate was assayed in duplicate, with at least 4 wells without MELK to establish background and at least 4 wells without inhibitor as a negative control. All readings were corrected for background signal based on the average counts from the wells without enzyme. Percent inhibition, defined as [100−(CPM+inhibitor/average CPM of positive controls)*100], was determined first at 10 μM inhibitor. The top 50 inhibitors were then re-screened in duplicate at 1 μM.
At set time points (0.25, 0.5, 1, 1.5, and 2 min for assays containing 10 nM MELK and 1, 2, 4, 6, and 10 min for assays containing 1 nM MELK), 30 μL aliquots were taken from each reaction and spotted onto 2×2 cm squares of p81 paper. Papers were washed 4 times in 75 mM O-phosphoric acid and once in acetone. Labeled protein was quantified by its associated CPM determined on a Packard 1500 scintillation counter at a sigma value of 2. CPM were translated into nmol ^32P incorporated using Equation 1.
Rates in the presence of each concentration of inhibitor were determined by plotting nmol ^32P incorporated vs. time. These rates were normalized to rates obtained without inhibitor, and data were plotted in terms of fractional activity. In most cases, data were fit to Equation 2. If the IC50 approached the amount of enzyme used in the assay, data were re-fit to the equation for tight-binding inhibitors (the Morrison equation, […]). […] Data were transformed as discussed and fit to Equation 3.
IC50 values were used to estimate each inhibitor's Ki using the Cheng-Prusoff relationship for competitive inhibitors (Equation 4).

AMPK [1] = target: AMPK (Rattus norvegicus (Rat), UniProt P54645); assay: Selectivity dose-response kinase assay, AMPK; details: 100 μM ATP
Text: (§1) CHK1 and NUAK1 were purchased from SignalChem (Vancouver, BC). The NUAK2, CHK, and SAMS peptides were purchased from BioSyn (Lewisville, Tex.). The sequence of CHK and NUAK2 peptides are described elsewhere (Sanchez Y, et al. Science (New York, N.Y.). 1997; 277(5331):1497-1501; Scott J W, et al. Sci Rep. 2015; 5:14436). ERK2, AMPK, CAMKK2, and Ets1 were produced in house as previously described (Waas W F, Dalby K N. The Journal of biological chemistry. 2002; 277(15):12532-12540; Neumann D, et al. Protein Expr Purif. 2003; 30(2):230-237; Waas W F, Dalby K N. Protein Expr Purif. 2001; 23(1):191-197). Apparent KM values for ATP under specific assay conditions were determined using respective experimental conditions in Table 8 with varied ATP (0-1.28 mM). All selectivity dose-response assays were performed in kinase assay buffer (see Inhibitor Library Screen) with 2 mM DTT and 100 μM γ-^32P-ATP with additional conditions listed in Table 8. IC50 and KM^ATP values were subsequently used to calculate Ki (Equation 4). Relative selectivity was determined by comparing Ki^Enzyme/Ki^MELK (termed φ in Table 7). […] Standard error from linear regression data was propagated internally in Prism and taken into account in nonlinear regression to determine IC50 or Ki.

AMPK [2] = assay: Selectivity dose-response kinase assay, AMPK
Text: as §1

NUAK1 = NUAK1 (Homo sapiens (Human), UniProt O60285); assay: Selectivity dose-response kinase assay, NUAK1; details: for Ki: 100 μM ATP
Text: as §1

CHK1 = CHK1 (Homo sapiens (Human), UniProt O14757); assay: Selectivity dose-response kinase assay, CHK1; details: for Ki: 100 μM ATP
Text: as §1

CAMKK2 = CAMKK2 (Homo sapiens (Human), UniProt Q96RR4); assay: Selectivity dose-response kinase assay, CAMKK2; details: for Ki: 100 μM ATP
Text: as §1

ERK2 = ERK2 (Rattus norvegicus (Rat), UniProt P63086); assay: Selectivity dose-response kinase assay, ERK2
Text: as §1

[3] = cross-inhibition of MELK by known kinase inhibitors, read-out: IC50 ± SE
[4] = Ki calculated using Equation 4, [ATP] = 40 μM, KM app (ATP) = 6 μM, read-out: Ki ± SE
[5] = indolinone derivatives, read-out: IC50
[6] = fragment and intermediate potency (synthetic intermediates), read-out: Ki ± SD
[7] = Ki calculated using Equation 4, [ATP] = 40 μM, KM app (ATP) = 6 μM
[8] = selectivity table, MELK, read-out: Ki

NUAK1, sequence (O60285 whole entry): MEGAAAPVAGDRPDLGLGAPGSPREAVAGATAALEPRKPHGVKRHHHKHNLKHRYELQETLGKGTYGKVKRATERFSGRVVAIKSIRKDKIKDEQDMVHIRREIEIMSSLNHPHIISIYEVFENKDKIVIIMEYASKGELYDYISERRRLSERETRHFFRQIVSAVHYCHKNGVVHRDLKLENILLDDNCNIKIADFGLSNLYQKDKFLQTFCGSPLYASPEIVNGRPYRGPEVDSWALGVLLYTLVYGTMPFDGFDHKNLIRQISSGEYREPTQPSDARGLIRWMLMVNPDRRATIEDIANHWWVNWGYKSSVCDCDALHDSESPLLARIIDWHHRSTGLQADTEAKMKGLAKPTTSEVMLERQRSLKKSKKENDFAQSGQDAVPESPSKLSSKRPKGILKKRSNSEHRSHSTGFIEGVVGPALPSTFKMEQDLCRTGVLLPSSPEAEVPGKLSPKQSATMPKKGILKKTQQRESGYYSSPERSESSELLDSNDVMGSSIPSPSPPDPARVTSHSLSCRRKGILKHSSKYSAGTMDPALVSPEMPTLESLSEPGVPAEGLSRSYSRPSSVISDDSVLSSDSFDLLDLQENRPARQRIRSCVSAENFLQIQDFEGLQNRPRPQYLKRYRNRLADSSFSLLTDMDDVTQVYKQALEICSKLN
ERK2, sequence (P63086 whole entry): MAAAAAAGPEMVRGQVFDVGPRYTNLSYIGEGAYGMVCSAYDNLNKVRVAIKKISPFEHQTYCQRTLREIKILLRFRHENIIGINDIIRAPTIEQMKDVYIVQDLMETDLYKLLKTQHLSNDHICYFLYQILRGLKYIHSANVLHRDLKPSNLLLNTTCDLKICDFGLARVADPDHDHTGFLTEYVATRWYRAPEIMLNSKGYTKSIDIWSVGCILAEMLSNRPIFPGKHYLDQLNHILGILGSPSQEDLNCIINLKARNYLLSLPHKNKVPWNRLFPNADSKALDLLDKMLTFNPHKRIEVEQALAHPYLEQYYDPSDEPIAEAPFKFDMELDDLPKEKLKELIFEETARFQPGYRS
CAMKK2, sequence (Q96RR4 whole entry, species assumed): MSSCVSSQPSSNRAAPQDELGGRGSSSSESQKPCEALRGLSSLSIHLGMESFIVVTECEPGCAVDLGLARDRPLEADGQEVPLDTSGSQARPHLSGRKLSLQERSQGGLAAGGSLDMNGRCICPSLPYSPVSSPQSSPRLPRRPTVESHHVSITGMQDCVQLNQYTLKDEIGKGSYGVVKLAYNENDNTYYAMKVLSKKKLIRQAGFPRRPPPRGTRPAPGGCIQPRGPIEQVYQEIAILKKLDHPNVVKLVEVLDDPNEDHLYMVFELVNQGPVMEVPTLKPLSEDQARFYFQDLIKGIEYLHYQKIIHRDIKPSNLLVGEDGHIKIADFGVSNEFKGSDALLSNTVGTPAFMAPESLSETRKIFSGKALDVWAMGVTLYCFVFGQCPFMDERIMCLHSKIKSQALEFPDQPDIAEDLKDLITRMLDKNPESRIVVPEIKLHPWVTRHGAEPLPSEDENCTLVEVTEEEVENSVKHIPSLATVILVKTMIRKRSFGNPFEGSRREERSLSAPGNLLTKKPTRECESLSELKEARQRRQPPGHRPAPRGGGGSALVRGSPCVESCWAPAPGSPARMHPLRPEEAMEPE
CHK1, sequence (O14757 whole entry): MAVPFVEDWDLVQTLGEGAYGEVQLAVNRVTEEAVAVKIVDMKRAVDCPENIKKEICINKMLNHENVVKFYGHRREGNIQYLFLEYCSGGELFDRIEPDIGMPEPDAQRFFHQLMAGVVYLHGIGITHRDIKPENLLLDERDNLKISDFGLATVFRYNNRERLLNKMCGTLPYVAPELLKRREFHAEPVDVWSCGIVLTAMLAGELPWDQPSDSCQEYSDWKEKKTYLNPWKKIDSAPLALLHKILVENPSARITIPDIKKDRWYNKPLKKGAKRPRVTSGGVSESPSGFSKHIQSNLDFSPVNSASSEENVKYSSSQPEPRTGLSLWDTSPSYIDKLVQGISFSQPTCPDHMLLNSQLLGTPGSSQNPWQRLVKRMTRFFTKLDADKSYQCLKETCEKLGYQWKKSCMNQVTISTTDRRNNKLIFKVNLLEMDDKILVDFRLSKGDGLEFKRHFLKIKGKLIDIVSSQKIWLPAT
MELK, sequence (Q14680 1-340): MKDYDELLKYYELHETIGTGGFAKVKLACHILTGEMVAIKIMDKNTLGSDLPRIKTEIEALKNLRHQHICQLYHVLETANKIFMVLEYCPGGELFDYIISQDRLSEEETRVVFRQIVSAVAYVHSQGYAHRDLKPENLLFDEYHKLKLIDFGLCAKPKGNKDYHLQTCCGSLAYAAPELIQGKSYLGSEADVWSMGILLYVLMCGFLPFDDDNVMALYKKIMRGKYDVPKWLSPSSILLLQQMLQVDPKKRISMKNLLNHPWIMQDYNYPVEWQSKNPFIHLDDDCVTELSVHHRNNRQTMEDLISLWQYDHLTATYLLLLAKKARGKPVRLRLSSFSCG
AMPK (Rattus norvegicus (Rat), UniProt P54645), sequence (P54645 whole entry, looked up): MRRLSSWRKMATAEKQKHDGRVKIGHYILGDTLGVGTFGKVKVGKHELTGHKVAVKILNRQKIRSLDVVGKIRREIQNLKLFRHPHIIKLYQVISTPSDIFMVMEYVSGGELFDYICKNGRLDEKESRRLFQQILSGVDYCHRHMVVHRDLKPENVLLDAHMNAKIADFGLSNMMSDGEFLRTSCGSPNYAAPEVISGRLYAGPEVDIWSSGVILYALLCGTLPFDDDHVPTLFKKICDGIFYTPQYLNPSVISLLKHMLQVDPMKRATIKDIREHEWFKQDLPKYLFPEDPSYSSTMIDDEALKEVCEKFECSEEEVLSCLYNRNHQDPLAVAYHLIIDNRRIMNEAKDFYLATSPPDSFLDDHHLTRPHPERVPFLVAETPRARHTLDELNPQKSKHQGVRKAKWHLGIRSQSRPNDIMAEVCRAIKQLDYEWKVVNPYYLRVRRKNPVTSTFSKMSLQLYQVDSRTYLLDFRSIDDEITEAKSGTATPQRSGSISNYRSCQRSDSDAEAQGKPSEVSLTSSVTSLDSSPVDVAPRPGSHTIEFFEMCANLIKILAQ
AMPK (Rattus norvegicus (Rat), UniProt P54645), sequence (P80386 whole entry partner, looked up): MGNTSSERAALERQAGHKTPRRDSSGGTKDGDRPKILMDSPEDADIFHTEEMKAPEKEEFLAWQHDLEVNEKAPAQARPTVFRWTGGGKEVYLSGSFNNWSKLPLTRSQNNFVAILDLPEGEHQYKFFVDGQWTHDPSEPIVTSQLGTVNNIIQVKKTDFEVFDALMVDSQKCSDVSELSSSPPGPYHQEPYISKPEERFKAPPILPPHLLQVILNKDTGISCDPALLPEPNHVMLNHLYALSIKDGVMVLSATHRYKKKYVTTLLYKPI
AMPK (Rattus norvegicus (Rat), UniProt P54645), sequence (P80385 whole entry partner, looked up): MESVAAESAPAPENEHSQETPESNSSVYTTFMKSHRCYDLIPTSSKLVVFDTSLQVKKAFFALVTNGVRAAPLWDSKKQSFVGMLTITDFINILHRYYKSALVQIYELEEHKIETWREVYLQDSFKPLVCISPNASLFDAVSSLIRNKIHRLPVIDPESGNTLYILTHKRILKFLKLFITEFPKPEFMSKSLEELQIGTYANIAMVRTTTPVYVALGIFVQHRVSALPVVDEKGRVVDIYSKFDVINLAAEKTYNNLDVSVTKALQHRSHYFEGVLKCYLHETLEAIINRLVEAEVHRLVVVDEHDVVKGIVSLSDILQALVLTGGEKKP

Ki (MELK; [4]): 358 ± 71 nM | IC50 (MELK; [5]): 2700 ± 540 nM
SMILES: CN(C)CCCNC(=O)c1ccc2c(c1)NC(=O)/C2=C(\Nc1ccc(N(C)C(=O)CN2CCN(C)CC2)cc1)c1ccccc1 [Compound 22, (Z)—N-(3-(Dimethylamino)propyl)-3-(((4-(N-methyl-2-(4-methylpiperazin-1-yl)acetamido)phenyl)amino)(phenyl)methylene)-2-oxoindoline-6-carboxamide]

Ki (MELK; [6]): > 5000 nM
SMILES: CCO/C(=C1\C(=O)N(C(C)=O)c2cc(C(=O)OC)ccc21)c1ccccc1 [Compound 6, Methyl (Z)-1-acetyl-3-(ethoxy(phenyl)methylene)-2-oxoindoline-6-carboxylate]

Ki ± SE (MELK; [7]): subnanomolar | Ki (MELK; [4]): 0.47 nM | IC50 (MELK; [5]): 3.6 ± 0.4 nM | Ki (MELK; [8]): 0.47 ± 0.06 nM | Ki (AMPK [1]): 4.2 ± 0.3 nM | difference in Ki compared to MELK (AMPK [2]): 5-10 fold | difference in Ki compared to MELK (NUAK1): 5-10 fold | Ki (NUAK1): 1.7 ± 0.17 nM | Ki (CHK1): 10 ± 0.5 nM | Ki (CAMKK2): 15 ± 1.8 nM
SMILES: CN1CCN(CC(=O)N(C)c2ccc(N/C(=C3\C(=O)Nc4ccccc43)c3ccccc3)cc2)CC1 [Compound 16, (Z)—N-Methyl-2-(4-methylpiperazin-1-yl)-N-(4-(((2-oxoindolin-3-ylidene)(phenyl)methyl)amino)phenyl)acetamide]

Ki (MELK; [6]): > 5000 nM
SMILES: CN1CCN(CC(=O)N(C)c2ccc(N)cc2)CC1 [Compound 14, N-(4-Aminophenyl)-N-methyl-2-(4-methylpiperazin-1-yl)acetamide]

Ki (MELK; [4]): 2.3 nM | IC50 (MELK; [5]): 18 ± 3.8 nM
SMILES: CNC(=O)c1ccc2c(c1)/C(=C(/Nc1ccc(N(C)C(=O)CN3CCN(C)CC3)cc1)c1ccccc1)C(=O)N2 [Compound 24, (Z)—N-Methyl-3-(((4-(N-methyl-2-(4-methylpiperazin-1-yl)acetamido)phenyl)amino)(phenyl)methylene)-2-oxoindoline-5-carboxamide]

Ki (MELK; [4]): 46 ± 4.6 nM | IC50 (MELK; [5]): 354 ± 35 nM
SMILES: CC(=O)c1ccc2c(c1)/C(=C(/Nc1ccc(N(C)C(=O)CN3CCN(C)CC3)cc1)c1ccccc1)C(=O)N2 [Compound 18, (Z)—N-(4-(((5-Acetyl-2-oxoindolin-3-ylidene)(phenyl)methyl)amino)phenyl)-N-methyl-2-(4-methylpiperazin-1-yl)acetamide]

IC50 (MELK; [5]): > 5000 nM
SMILES: CN1CCN(CC(=O)N(C)c2ccc(N/C(=C3\C(=O)Nc4cc(C(=O)NCCCN)ccc43)c3ccccc3)cc2)CC1 [Compound 23, (Z)—N-(3-Aminopropyl)-3-(((4-(N-methyl-2-(4-methylpiperazin-1-yl)acetamido)phenyl)amino)(phenyl)methylene)-2-oxoindoline-6-carboxamide]

Ki (MELK; [4]): 149 ± 22 nM | IC50 (MELK; [5]): 1140 ± 168 nM
SMILES: CN1CCN(CC(=O)N(C)c2ccc(N/C(=C3\C(=O)Nc4cc(C(=O)O)ccc43)c3ccccc3)cc2)CC1 [Compound 20, (Z)-3-(((4-(N-Methyl-2-(4-methylpiperazin-1-yl)acetamido)phenyl)amino)(phenyl)methylene)-2-oxoindoline-6-carboxylic acid]

Ki ± SE (MELK; [7]): subnanomolar | Ki (MELK; [4]): 0.68 ± 0.07 nM | φ = Ki Enzyme/Ki MELK (MELK; MELK): 1.00 | IC50 (MELK; [5]): 5.2 ± 0.5 nM | Ki (MELK; [8]): 0.68 ± 0.07 nM | Ki (AMPK [1]): 4.9 ± 0.6 nM | φ = Ki Enzyme/Ki MELK (AMPK [2]): 7.2 ± 0.2 | φ = Ki Enzyme/Ki MELK (NUAK1): 13 ± 0.2 | Ki (NUAK1): 8.6 ± 1.6 nM | difference in relative Ki compared to MELK (CHK1): > 100 fold | φ = Ki Enzyme/Ki MELK (CHK1): 120 ± 0.1 | Ki (CHK1): 81 ± 5.6 nM | difference in relative Ki compared to MELK (CAMKK2): > 100 fold | φ = Ki Enzyme/Ki MELK (CAMKK2): 125 ± 0.2 | Ki (CAMKK2): 85 ± 9.2 nM | difference in relative Ki compared to MELK (ERK2): > 100 fold | φ = Ki Enzyme/Ki MELK (ERK2): 28000 ± 0.2 | Ki (ERK2; 100 μM ATP): 19000 ± 3800 nM
SMILES: CN1CCN(CC(=O)N(C)c2ccc(N/C(=C3\C(=O)Nc4ccc(C(=O)O)cc43)c3ccccc3)cc2)CC1 [Compound 21, (Z)-3-(((4-(N-Methyl-2-(4-methylpiperazin-1-yl)acetamido)phenyl)amino)(phenyl)methylene)-2-oxoindoline-5-carboxylic acid]

IC50 (MELK; [3]): 225 ± 50 nM
SMILES: CCS(=O)(=O)Nc1ccc2c(c1)/C(=C(/Nc1ccc(CN3CCCCC3)cc1)c1ccccc1)C(=O)N2 [Hesperadin, reference compound]

The next lines start with the molecule.

SMILES: NC(=O)Nc1cc(-c2cccc(F)c2)sc1C(=O)N[C@@H]1CCCNC1 [AZD776, reference compound]
IC50 (MELK; [3]): 900 ± 91 nM

SMILES: CC(C)(C)c1nc2c3ccc(F)cc3c3c(=O)[nH]ccc3c2[nH]1 [Compound 420099, reference compound]
IC50 (MELK; [3]): 330 ± 37 nM

SMILES: Cc1ccc([N+](=O)[O-])cc1S(=O)(=O)N(C)/N=C/c1cnc2ccc(Br)cn12 [PIK75, reference compound]
IC50 (MELK; [3]): 400 ± 72 nM

SMILES: CCO/C(=C1\C(=O)N(C(C)=O)c2ccc(C(=O)OC)cc21)c1ccccc1 [Compound 8, Methyl (Z)-1-acetyl-3-(ethoxy(phenyl)methylene)-2-oxoindoline-5-carboxylate]
Ki (MELK; [6]): > 5000 nM

SMILES: N=C(N)NCCNS(=O)(=O)c1cccc2cnccc12 [HA-1004, reference compound]
IC50 (MELK; [3]): 440 ± 210 nM

SMILES: O=C1Nc2ccc3scnc3c2/C1=C/c1cnc[nH]1 [Compound 527450, reference compound]
IC50 (MELK; [3]): 720 ± 100 nM

SMILES: c1cc(OCCN2CCCCC2)cc(-c2n[nH]c3ccc(-c4nc[nH]n4)cc23)c1 [CC401, reference compound]
IC50 (MELK; [3]): 340 ± 70 nM

SMILES: CCN(CC)CCNC(=O)c1c(C)[nH]c(/C=C2\C(=O)Nc3ccc(Cl)cc32)c1C [Compound 572660, reference compound]
IC50 (MELK; [3]): 760 ± 190 nM
